Test results reported in the supplement of paper PMC10307832.

What was measured:
Test in all cases: relative viability (nuclei count vs DMSO), 5 days (fraction); higher = more cells survive
Ricolinostat + Dasatinib = compound: O=C(CCCCCCNC(=O)c1cnc(N(c2ccccc2)c2ccccc2)nc1)NO [Ricolinostat] + Cc1nc(Nc2ncc(C(=O)Nc3c(C)cccc3Cl)s2)cc(N2CCN(CCO)CC2)n1 [Dasatinib] (partner 0.075 µM)
How it was run: (§1)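 Relative viability divides the nuclei count in treated wells by that in vehicle wells. Lung cancer cell lines were seeded in 1536-well plates, dosed by pin tool the next day, and fixed and stained after 5 days in one step with final 0.05% Triton X-100, 1% formaldehyde and 1 ug/ml Hoechst. Dosing was a single drug or a fixed anchor-drug dose plus five library-drug doses (not always all listed) in √10 steps, and values are medians of duplicate plates imaged at 4×.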

TGX 221 + Trametinib = compound: CC1=CN2C(=O)C=C(N=C2C(=C1)C(C)NC3=CC=CC=C3)N4CCOCC4 [TGX 221] + CC(=O)Nc1cccc(-n2c(=O)n(C3CC3)c(=O)c3c(Nc4ccc(I)cc4F)n(C)c(=O)c(C)c32)c1 [Trametinib] (partner 0.02 µM)
How it was run: as §1

TGX 221 + Vorinostat = compound: CC1=CN2C(=O)C=C(N=C2C(=C1)C(C)NC3=CC=CC=C3)N4CCOCC4 [TGX 221] + O=C(CCCCCCC(=O)Nc1ccccc1)NO [Vorinostat] (partner 1 µM)
How it was run: as §1

[1] = compound: C1=CC=C(C(=C1)C2=CC=C(C=C2)C3=CSC4=C3C(=C(C(=O)N4)C#N)O)O + Cc1nc(NC(=O)N2CCC[C@H]2C(N)=O)sc1-c1ccnc(C(C)(C)C(F)(F)F)c1 [Alpelisib] (partner 2 µM)
How it was run: as §1

NCI-H460 gave a relative viability (Ricolinostat + Dasatinib; first compound 0.08 µM) of 0.319, a relative viability (Ricolinostat + Dasatinib; first compound 0.253 µM) of 0.459 and a relative viability (Ricolinostat + Dasatinib; first compound 0.8 µM) of 0.444. It also gave a relative viability (Ricolinostat + Dasatinib; first compound 2.53 µM) of 0.42, a relative viability (TGX 221 + Trametinib; first compound 0.08 µM) of 0.104 and a relative viability (TGX 221 + Trametinib; first compound 0.253 µM) of 0.121. It also gave a relative viability (TGX 221 + Trametinib; first compound 0.8 µM) of 0.202, a relative viability (TGX 221 + Trametinib; first compound 2.53 µM) of 0.171 and a relative viability (TGX 221 + Trametinib; first compound 8 µM) of 0.0976. For the same cell line, the relative viability (TGX 221 + Vorinostat; first compound 0.08 µM) was 0.654, the relative viability (TGX 221 + Vorinostat; first compound 0.253 µM) was 0.632 and the relative viability (TGX 221 + Vorinostat; first compound 0.8 µM) was 0.655. For the same cell line, the relative viability (TGX 221 + Vorinostat; first compound 2.53 µM) was 0.691, the relative viability (TGX 221 + Vorinostat; first compound 8 µM) was 0.595 and the relative viability ([1]; first compound 0.253 µM) was 0.67. It also gave a relative viability ([1]; first compound 0.8 µM) of 0.596, a relative viability ([1]; first compound 2.53 µM) of 0.588 and a relative viability ([1]; first compound 8 µM) of 0.387.
With LOU-NH91 the relative viability (Ricolinostat + Dasatinib; first compound 0.08 µM) was 0.453, the relative viability (Ricolinostat + Dasatinib; first compound 0.253 µM) was 0.543 and the relative viability (Ricolinostat + Dasatinib; first compound 0.8 µM) was 0.558. The relative viability (Ricolinostat + Dasatinib; first compound 2.53 µM) was 0.533, the relative viability (TGX 221 + Trametinib; first compound 0.08 µM) was 0.818 and the relative viability (TGX 221 + Trametinib; first compound 0.253 µM) was 0.741. The relative viability (TGX 221 + Trametinib; first compound 0.8 µM) was 0.756, the relative viability (TGX 221 + Trametinib; first compound 2.53 µM) was 0.774 and the relative viability (TGX 221 + Trametinib; first compound 8 µM) was 0.709. It also gave a relative viability (TGX 221 + Vorinostat; first compound 0.08 µM) of 0.888, a relative viability (TGX 221 + Vorinostat; first compound 0.253 µM) of 0.963 and a relative viability (TGX 221 + Vorinostat; first compound 0.8 µM) of 0.957. The relative viability (TGX 221 + Vorinostat; first compound 2.53 µM) was 0.902, the relative viability (TGX 221 + Vorinostat; first compound 8 µM) was 0.9 and the relative viability ([1]; first compound 0.08 µM) was 0.678. For the same cell line, the relative viability ([1]; first compound 0.253 µM) was 0.789, the relative viability ([1]; first compound 0.8 µM) was 0.721 and the relative viability ([1]; first compound 2.53 µM) was 0.663. The relative viability ([1]; first compound 8 µM) was 0.67.
In the case of NCI-H2170, the relative viability (Ricolinostat + Dasatinib; first compound 0.08 µM) is reported as 0.537, the relative viability (Ricolinostat + Dasatinib; first compound 0.253 µM) is reported as 0.733 and the relative viability (Ricolinostat + Dasatinib; first compound 0.8 µM) is reported as 0.626. For the same cell line, the relative viability (Ricolinostat + Dasatinib; first compound 2.53 µM) was 0.666, the relative viability (TGX 221 + Trametinib; first compound 0.08 µM) was 0.883 and the relative viability (TGX 221 + Trametinib; first compound 0.253 µM) was 0.877. For the same cell line, the relative viability (TGX 221 + Trametinib; first compound 0.8 µM) was 0.949, the relative viability (TGX 221 + Trametinib; first compound 2.53 µM) was 0.977 and the relative viability (TGX 221 + Trametinib; first compound 8 µM) was 0.892. For the same cell line, the relative viability (TGX 221 + Vorinostat; first compound 0.08 µM) was 0.754, the relative viability (TGX 221 + Vorinostat; first compound 0.253 µM) was 0.758 and the relative viability (TGX 221 + Vorinostat; first compound 0.8 µM) was 0.767. The relative viability (TGX 221 + Vorinostat; first compound 2.53 µM) was 0.759, the relative viability (TGX 221 + Vorinostat; first compound 8 µM) was 0.831 and the relative viability ([1]; first compound 0.08 µM) was 0.797. For the same cell line, the relative viability ([1]; first compound 0.253 µM) was 0.79, the relative viability ([1]; first compound 0.8 µM) was 0.884 and the relative viability ([1]; first compound 2.53 µM) was 0.786. It also gave a relative viability ([1]; first compound 8 µM) of 0.685.
LU99A gave a relative viability (Ricolinostat + Dasatinib; first compound 0.08 µM) of 0.461, a relative viability (Ricolinostat + Dasatinib; first compound 0.253 µM) of 0.583 and a relative viability (Ricolinostat + Dasatinib; first compound 0.8 µM) of 0.465. It also gave a relative viability (Ricolinostat + Dasatinib; first compound 2.53 µM) of 0.512, a relative viability (TGX 221 + Trametinib; first compound 0.08 µM) of 0.507 and a relative viability (TGX 221 + Trametinib; first compound 0.253 µM) of 0.479. The relative viability (TGX 221 + Trametinib; first compound 0.8 µM) was 0.557, the relative viability (TGX 221 + Trametinib; first compound 2.53 µM) was 0.505 and the relative viability (TGX 221 + Trametinib; first compound 8 µM) was 0.493. For the same cell line, the relative viability (TGX 221 + Vorinostat; first compound 0.08 µM) was 0.431, the relative viability (TGX 221 + Vorinostat; first compound 0.253 µM) was 0.514 and the relative viability (TGX 221 + Vorinostat; first compound 0.8 µM) was 0.588. The relative viability (TGX 221 + Vorinostat; first compound 2.53 µM) was 0.356, the relative viability (TGX 221 + Vorinostat; first compound 8 µM) was 0.529 and the relative viability ([1]; first compound 0.08 µM) was 0.613. It also gave a relative viability ([1]; first compound 0.253 µM) of 0.5, a relative viability ([1]; first compound 0.8 µM) of 0.538 and a relative viability ([1]; first compound 2.53 µM) of 0.507. For the same cell line, the relative viability ([1]; first compound 8 µM) was 0.527.
Work on NCI-H358 yielded a relative viability (Ricolinostat + Dasatinib; first compound 0.08 µM) of 0.164, a relative viability (Ricolinostat + Dasatinib; first compound 0.253 µM) of 0.168 and a relative viability (Ricolinostat + Dasatinib; first compound 0.8 µM) of 0.146. It also gave a relative viability (Ricolinostat + Dasatinib; first compound 2.53 µM) of 0.187, a relative viability (TGX 221 + Trametinib; first compound 0.08 µM) of 0.13 and a relative viability (TGX 221 + Trametinib; first compound 0.253 µM) of 0.127. The relative viability (TGX 221 + Trametinib; first compound 0.8 µM) was 0.153, the relative viability (TGX 221 + Trametinib; first compound 2.53 µM) was 0.132 and the relative viability (TGX 221 + Trametinib; first compound 8 µM) was 0.132. For the same cell line, the relative viability (TGX 221 + Vorinostat; first compound 0.08 µM) was 0.746, the relative viability (TGX 221 + Vorinostat; first compound 0.253 µM) was 0.663 and the relative viability (TGX 221 + Vorinostat; first compound 0.8 µM) was 0.71. For the same cell line, the relative viability (TGX 221 + Vorinostat; first compound 2.53 µM) was 0.668, the relative viability (TGX 221 + Vorinostat; first compound 8 µM) was 0.602 and the relative viability ([1]; first compound 0.08 µM) was 0.708. For the same cell line, the relative viability ([1]; first compound 0.253 µM) was 0.862, the relative viability ([1]; first compound 0.8 µM) was 0.788 and the relative viability ([1]; first compound 2.53 µM) was 0.973. The relative viability ([1]; first compound 8 µM) was 0.763.
SW 1573 gave a relative viability (Ricolinostat + Dasatinib; first compound 0.08 µM) of 0.756, a relative viability (Ricolinostat + Dasatinib; first compound 0.253 µM) of 0.507 and a relative viability (Ricolinostat + Dasatinib; first compound 0.8 µM) of 0.695. For the same cell line, the relative viability (Ricolinostat + Dasatinib; first compound 2.53 µM) was 0.581, the relative viability (TGX 221 + Trametinib; first compound 0.08 µM) was 0.518 and the relative viability (TGX 221 + Trametinib; first compound 0.253 µM) was 0.429. The relative viability (TGX 221 + Trametinib; first compound 0.8 µM) was 0.567, the relative viability (TGX 221 + Trametinib; first compound 2.53 µM) was 0.382 and the relative viability (TGX 221 + Trametinib; first compound 8 µM) was 0.442. For the same cell line, the relative viability (TGX 221 + Vorinostat; first compound 0.08 µM) was 0.648, the relative viability (TGX 221 + Vorinostat; first compound 0.253 µM) was 0.655 and the relative viability (TGX 221 + Vorinostat; first compound 0.8 µM) was 0.739. The relative viability (TGX 221 + Vorinostat; first compound 2.53 µM) was 0.888, the relative viability (TGX 221 + Vorinostat; first compound 8 µM) was 0.778 and the relative viability ([1]; first compound 0.08 µM) was 0.726. The relative viability ([1]; first compound 0.253 µM) was 0.974, the relative viability ([1]; first compound 0.8 µM) was 0.758 and the relative viability ([1]; first compound 2.53 µM) was 0.624. For the same cell line, the relative viability ([1]; first compound 8 µM) was 0.583.
For LK-2, the relative viability (Ricolinostat + Dasatinib; first compound 0.08 µM) was 0.34, the relative viability (Ricolinostat + Dasatinib; first compound 0.253 µM) was 0.271 and the relative viability (Ricolinostat + Dasatinib; first compound 0.8 µM) was 0.444. It also gave a relative viability (Ricolinostat + Dasatinib; first compound 2.53 µM) of 0.35, a relative viability (TGX 221 + Trametinib; first compound 0.08 µM) of 0.725 and a relative viability (TGX 221 + Trametinib; first compound 0.253 µM) of 0.716. It also gave a relative viability (TGX 221 + Trametinib; first compound 0.8 µM) of 0.847, a relative viability (TGX 221 + Trametinib; first compound 2.53 µM) of 0.823 and a relative viability (TGX 221 + Trametinib; first compound 8 µM) of 0.749. For the same cell line, the relative viability (TGX 221 + Vorinostat; first compound 0.08 µM) was 0.356, the relative viability (TGX 221 + Vorinostat; first compound 0.253 µM) was 0.309 and the relative viability (TGX 221 + Vorinostat; first compound 0.8 µM) was 0.249. It also gave a relative viability (TGX 221 + Vorinostat; first compound 2.53 µM) of 0.415, a relative viability (TGX 221 + Vorinostat; first compound 8 µM) of 0.505 and a relative viability ([1]; first compound 0.8 µM) of 0.906. For the same cell line, the relative viability ([1]; first compound 2.53 µM) was 1 and the relative viability ([1]; first compound 8 µM) was 1.06.
With NCI-H596 the relative viability (Ricolinostat + Dasatinib; first compound 0.08 µM) was 0.586, the relative viability (Ricolinostat + Dasatinib; first compound 0.253 µM) was 0.553 and the relative viability (Ricolinostat + Dasatinib; first compound 0.8 µM) was 0.613. For the same cell line, the relative viability (Ricolinostat + Dasatinib; first compound 2.53 µM) was 0.494, the relative viability (TGX 221 + Trametinib; first compound 0.08 µM) was 0.654 and the relative viability (TGX 221 + Trametinib; first compound 0.253 µM) was 0.807. For the same cell line, the relative viability (TGX 221 + Trametinib; first compound 0.8 µM) was 0.82, the relative viability (TGX 221 + Trametinib; first compound 2.53 µM) was 0.908 and the relative viability (TGX 221 + Trametinib; first compound 8 µM) was 0.774. It also gave a relative viability (TGX 221 + Vorinostat; first compound 0.08 µM) of 0.571, a relative viability (TGX 221 + Vorinostat; first compound 0.253 µM) of 0.588 and a relative viability (TGX 221 + Vorinostat; first compound 0.8 µM) of 0.685. The relative viability (TGX 221 + Vorinostat; first compound 2.53 µM) was 0.494, the relative viability (TGX 221 + Vorinostat; first compound 8 µM) was 0.524 and the relative viability ([1]; first compound 0.08 µM) was 0.397. The relative viability ([1]; first compound 0.253 µM) was 0.541, the relative viability ([1]; first compound 0.8 µM) was 0.489 and the relative viability ([1]; first compound 2.53 µM) was 0.497. The relative viability ([1]; first compound 8 µM) was 0.447.
